Where two headings read alike, the source gives them in different places.
What was measured:
Assay in all cases: KinomeScan kinase panel, single concentration 10 µM
Assay type in all cases: binding
KinomeScan kinase panel [1] = target: T1, KinomeScan kinase panel (Homo sapiens, UniProt P43405); settings: 10 µM
T1 construct: purchased DiscoveRx (KinomeScan)

KinomeScan kinase panel [2] = target: T2, KinomeScan kinase panel (Homo sapiens, UniProt P78356); settings: PIP5K2B, 10 µM; read-out: score (%)
T2 construct: purchased DiscoveRx (KinomeScan)
T2 sequence (P78356 1-416): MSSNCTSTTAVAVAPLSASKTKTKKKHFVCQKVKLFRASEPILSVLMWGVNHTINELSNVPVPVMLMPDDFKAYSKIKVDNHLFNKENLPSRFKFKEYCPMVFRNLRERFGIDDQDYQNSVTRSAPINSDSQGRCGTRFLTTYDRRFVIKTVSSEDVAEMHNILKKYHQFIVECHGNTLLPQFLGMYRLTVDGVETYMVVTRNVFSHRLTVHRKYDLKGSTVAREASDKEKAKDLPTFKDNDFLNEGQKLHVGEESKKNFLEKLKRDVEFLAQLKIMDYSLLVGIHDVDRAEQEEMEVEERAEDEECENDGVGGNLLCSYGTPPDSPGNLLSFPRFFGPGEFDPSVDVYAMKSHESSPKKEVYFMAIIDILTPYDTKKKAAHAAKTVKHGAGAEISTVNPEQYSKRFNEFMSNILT

KinomeScan kinase panel [3] = target: T3, KinomeScan kinase panel (Homo sapiens, UniProt Q12866); settings: MERTK, 10 µM; read-out: score (%)
T3 construct: purchased DiscoveRx (KinomeScan)
T3 sequence (Q12866 21-999): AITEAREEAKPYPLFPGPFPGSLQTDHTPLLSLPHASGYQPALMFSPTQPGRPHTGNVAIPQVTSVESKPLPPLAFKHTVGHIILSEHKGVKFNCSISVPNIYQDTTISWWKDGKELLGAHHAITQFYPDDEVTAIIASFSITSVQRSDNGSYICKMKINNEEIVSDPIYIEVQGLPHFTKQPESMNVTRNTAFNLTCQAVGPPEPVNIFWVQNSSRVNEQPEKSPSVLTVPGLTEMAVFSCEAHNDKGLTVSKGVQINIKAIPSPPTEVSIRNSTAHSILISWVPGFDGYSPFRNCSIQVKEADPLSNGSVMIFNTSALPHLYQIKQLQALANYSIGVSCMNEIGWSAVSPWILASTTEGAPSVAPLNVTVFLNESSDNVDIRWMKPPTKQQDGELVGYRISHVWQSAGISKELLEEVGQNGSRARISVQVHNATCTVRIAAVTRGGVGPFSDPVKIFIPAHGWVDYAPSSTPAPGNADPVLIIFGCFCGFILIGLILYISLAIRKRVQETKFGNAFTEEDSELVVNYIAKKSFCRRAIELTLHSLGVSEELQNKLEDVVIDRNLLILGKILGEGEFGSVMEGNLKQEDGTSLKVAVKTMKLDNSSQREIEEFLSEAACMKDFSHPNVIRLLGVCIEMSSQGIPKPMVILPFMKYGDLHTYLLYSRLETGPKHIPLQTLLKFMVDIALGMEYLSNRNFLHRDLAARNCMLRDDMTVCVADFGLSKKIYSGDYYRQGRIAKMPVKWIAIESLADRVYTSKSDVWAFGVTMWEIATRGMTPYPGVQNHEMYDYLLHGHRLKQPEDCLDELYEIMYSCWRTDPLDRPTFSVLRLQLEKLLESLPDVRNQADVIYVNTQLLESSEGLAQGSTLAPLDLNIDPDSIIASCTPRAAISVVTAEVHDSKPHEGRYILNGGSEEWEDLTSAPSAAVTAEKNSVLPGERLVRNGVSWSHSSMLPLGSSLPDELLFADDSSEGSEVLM

KinomeScan kinase panel [4] = target: T4, KinomeScan kinase panel (Homo sapiens, UniProt Q7L7X3); settings: read-out: score (%)
T4 construct: purchased DiscoveRx (KinomeScan)
T4 sequence (Q7L7X3 1-1001): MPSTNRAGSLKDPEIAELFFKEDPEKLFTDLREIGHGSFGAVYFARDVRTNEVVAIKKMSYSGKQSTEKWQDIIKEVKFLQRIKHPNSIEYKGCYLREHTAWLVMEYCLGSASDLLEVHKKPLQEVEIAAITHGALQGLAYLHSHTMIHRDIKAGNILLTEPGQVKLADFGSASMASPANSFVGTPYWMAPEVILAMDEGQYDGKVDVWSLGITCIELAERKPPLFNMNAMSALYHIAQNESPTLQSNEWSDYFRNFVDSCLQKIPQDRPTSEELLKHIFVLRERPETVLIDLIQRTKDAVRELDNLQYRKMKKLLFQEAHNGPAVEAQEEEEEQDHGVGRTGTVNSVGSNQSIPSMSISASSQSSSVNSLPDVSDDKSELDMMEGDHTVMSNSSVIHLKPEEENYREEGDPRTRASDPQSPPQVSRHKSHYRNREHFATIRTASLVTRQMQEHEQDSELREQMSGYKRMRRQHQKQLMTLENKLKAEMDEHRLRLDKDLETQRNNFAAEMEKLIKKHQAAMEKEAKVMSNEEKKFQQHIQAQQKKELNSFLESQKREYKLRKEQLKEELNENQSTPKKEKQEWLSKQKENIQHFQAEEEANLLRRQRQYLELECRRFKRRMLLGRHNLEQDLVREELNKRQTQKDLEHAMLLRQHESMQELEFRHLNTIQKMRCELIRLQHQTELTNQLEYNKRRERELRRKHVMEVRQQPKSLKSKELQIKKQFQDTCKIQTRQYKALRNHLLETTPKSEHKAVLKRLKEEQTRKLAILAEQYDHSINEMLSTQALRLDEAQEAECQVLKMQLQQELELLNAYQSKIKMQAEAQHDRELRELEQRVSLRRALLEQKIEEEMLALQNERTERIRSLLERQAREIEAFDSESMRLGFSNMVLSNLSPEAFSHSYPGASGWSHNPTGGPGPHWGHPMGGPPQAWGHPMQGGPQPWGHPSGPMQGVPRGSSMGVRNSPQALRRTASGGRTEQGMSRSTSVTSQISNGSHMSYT

SMILES	score (%) (KinomeScan kinase panel [1]; kinase SYK)	remaining binding at 10 µM (KinomeScan kinase panel [2])	remaining binding at 10 µM (KinomeScan kinase panel [3])	remaining binding at 10 µM (KinomeScan kinase panel [4]; kinase TAOK1, 10 µM)	score (%) (KinomeScan kinase panel [1]; SYK)	remaining binding at 10 µM (KinomeScan kinase panel [4]; TAOK1, 10 µM)
CCN1CCN(Cc2ccc(NC(=O)c3ccc(C)c(NC(=O)c4cncc(-c5cccs5)c4)c3)cc2C(F)(F)F)CC1 [ALW-II-41-27]	4.2%	> 30%	> 30%	> 30%		
CCN1CCN(Cc2ccc(NC(=O)c3ccc(C)c(/C=C/c4cnc5[nH]ccc5c4Cl)c3)cc2C(F)(F)F)CC1 [HG-6-63-01, (E)-3-(2-(4-chloro-1H-pyrrolo[2,3-b]pyridin-5-yl)vinyl)-N-(4-((4-ethylpiperazin-1-yl)methyl)-3-(trifluoromethyl)phenyl)-4-methylbenzamide]		5%	> 30%		1.8%	6.5%
CCN1CCN(Cc2ccc(NC(=O)c3ccc(C)c(C#Cc4cccnc4)c3)cc2C(F)(F)F)CC1 [XMD15-44]	13%	58%	5.2%	0.25%		

Source: PMC4457528, “Identification of Novel Small Molecule Inhibitors of Oncogenic RET Kinase” (PLoS ONE, 2015)
